The text below walks through data of US20250134870A1, “PATHWAY MODULATOR, PHARMACEUTICAL COMPOSITION HAVING SAME, USE THEREOF, AND THERAPEUTIC METHOD USING SAME” (Jiangsu Yahong Meditech Co., Ltd., priority 2021, published 2025).

One series relates to norepinephrine level. The settings on record: cited from earlier work.
For series [1], the system named is dextran sulfate sodium (DSS)-induced colitis. Briefly: DSS-induced colitis in mice: body weight, DAI score, colon density (Examples 1, 3). Particulars: for Colon density: experimental endpoint. It is filed as in vivo, C57BL/6J mice. On the procedure:
8-10 week old female C57BL/6J mice purchased from Charles River Laboratories were used. The mice were housed in a room at constant temperature (20+2° C.) (5 mice per cage) with a 12-hour light-dark cycle. All protocols were approved by the Institutional Animal Care and Use Committee of WuXi AppTec. These mice were adapted to the housing conditions at the animal experiment center of WuXi AppTec for at least three days prior to the experiment. […] At the experimental endpoint (see hereinafter), mice were euthanized and endpoint samples were obtained. Mice in the normal group were not given 3% DSS aqueous solution to induce colitis and were free to drink blank water. […] The animal body weight and DAI score were assessed under double-blind conditions, that is, the researchers collected the body weight data of mice and observed and scored the stool characteristics and blood stools every day, without knowing the group and dosing regimen. The DAI score was the sum of the weight loss score, stool score and bleeding score. […] The data were analyzed by analysis of variance, specifically by using the following process: using Graph Pad Prism 6.0 software to carry out post-hoc Dunnett's multiple comparison test. […] Data were expressed as mean±S.E.M. The experimental endpoint was 24 hours after administration on Day 8 for the positive drug control group and the Test group 1 #to Test group 7 #of Example 1; the experimental endpoint of the normal group and the solvent group was the same as that of the positive drug control group and Test group 1 #to Test group 7 #.

In series [2] the test system is systolic and diastolic blood pressure. The settings on record: 200 mg, phase II clinical study, cited from earlier work.
The subject of series [3] is dextran sulfate sodium (DSS)-induced colitis. Briefly: DSS-induced colitis in mice, 3.1% DSS: body weight change and DAI (Example 11). It is filed as in vivo, C57BL/6 mice. The settings on record: 100 mg/kg, qd. The source says:
The experimental mice were housed in an SPF grade animal room for three days for adaptation, and randomly divided into 7 groups (6 model groups and 1 control group) of 10 mice in each group. Dosing of mice started on Day 0 and ended on Day 7.
The mouse enteritis model of this Example was established by DSS induction: mice in the model group were provided with a 3.1% DSS (dextran sulfate sodium, molecular weight 36,000-50,000) aqueous solution from Day 0 to Day 7, and the DSS aqueous solution was replaced with freshly prepared solution every day to prevent degradation. Mice in the normal control group were provided with normal water. The experimental period was 9 days, and the mice were euthanized and samples were collected at the experimental endpoint.
The DAI score was assessed daily. The DAI score consisted of 3 parts: body weight change, stool characteristics, and hematochezia (or occult blood) score, and the specific scoring criteria were as shown in Table 49. The DAI scoring of all mice was done by the same staff throughout the experiment.
Mice were euthanized at the experimental endpoint. The colon of mice was dissected, and photograph was taken, the length was measured, and the contents were removed before weighing.
The data were expressed as mean±standard error (X±s). Body weight change and disease activity score were statistically analyzed by two-way ANOVA and comparison between groups were performed by Dunnett's test. Other data were statistically analyzed by one-way ANOVA and comparison between groups were performed by Dunnett's test. All analyses were performed using GraphPad Prism software. * P<0.05, ** P<0.01, *** P<0.005, **** P<0.0001 vs. solvent group.

In series [4] the test system is bleomycin-induced skin fibrosis. Description: Bleomycin-induced skin fibrosis in mice: skin histopathology (dermal thickness, capillary density score, inflammatory cell infiltration score). It is filed as in vivo, male C57BL/6 mice. Particulars: 50 mg/kg PO BID, 28 days. On the procedure: The skin tissue of the lesioned skin was subjected to dehydration, embedding and sectioning according to the pathology SOP, and the tissue was stained by HE and Masson staining. Histopathological analysis was performed according to the following methods:
Masson-stained sections were panoramically scanned by using Nanozomer S210 and the scanned images were subjected to quantitative analysis using Visiopharm VIS6.0 software. The degree of fibrosis was currently represented by the dermal thickness after Masson staining.
The fields of observation was selected in the dermis layer of the lesioned area (the number of fields selected was determined according to the size of the lesioned area) and scored according to the area occupied by capillaries in the area: • 0: No capillary formed • 1: The proportion of capillaries formed was less than 25%; • 2: The proportion of capillaries formed was 25-50%; • 3: The proportion of capillaries formed was 50-75%; • 4: The proportion of capillaries formed was greater than 75%. 3.8.3 Inflammatory cell infiltration score of dermis layer
The fields of observation was selected in the dermis layer of the lesioned area (the number of fields selected was determined according to the size of the lesioned area) and scored according to the degree of inflammatory cell infiltration: • 0: No inflammatory cell infiltration: • 1: A small amount of focal inflammatory cell infiltration; • 2: Scattered diffuse inflammatory cell infiltration: • 3: A large amount of diffuse inflammatory cell infiltration; • 4: A large amount of agglomerated inflammatory cell infiltration.

In series [5] the test system is imiquimod (IMQ)-induced psoriasis. Description: Imiquimod (IMQ)-induced psoriasis in mice: erythema, scales, thickness, total score, AUC (Example 8). In kind it is in vivo, Balb/c mice. Also on record: key to erythema score / scales score / thickness score: 0 = none, 1 = mild, 2 = moderate, 3 = obvious/severe; key to total score of erythema + scales + thickness: sum of three 0-3 scores (erythema + scales + thickening), 0-9. Particulars: for erythema score / scales score: BID × 2 days; for thickness score / total score of erythema + scales + thickness: positive control group. On the procedure:
All mice were shaved with a pet shaver to get an area of 2×3 cm on the back one day before the start of the experiment.
65 animals were randomly divided into groups according to body weight, and the dosing regimen was as follows.
Imiquimod (IMQ) cream: 62.5 mg of IMQ cream for each mouse in G2 to G7; Dexamethasone (DEX) ointment: 70 mg of ointment for each mouse in G4;
Tofacitinib: Tofacitinib was dissolved in dimethyl sulfoxide to 5 mg/mL, and 50 μL was added to IMQ cream for daily treatment.
Mice in Groups 2 to 7 received daily topical doses of 62.5 mg of IMQ cream on their shaved back from Day 0 to Day 7.
Dosing of the test compounds and reference substance was carried out according to Table 29 for 7 consecutive days.
To assess the severity of inflammation of skin on the back, the skin on the back was scored according to Table 30. Erythema, scales and thickening were scored independently on a scale of 0 to 3, 0, none; 1. mild; 2. moderate; 3. obvious/severe.
The inhibition rate was calculated according to the following formula: Inhibition rate=[AUC (solvent)−AUC (treatment)]/AUC (solvent)×100%. Wherein, solvent referred to the solvent group corresponding to the route of administration.

Setting [6] is: rats with spontaneous hypertension.
Setting [7] is: Day 0, 12.5 mg/kg topical QD × 5 days.
The mark [8] stands for this setting: Day 1, 12.5 mg/kg topical QD × 5 days.
Where [9] appears, read: Day 2, 12.5 mg/kg topical QD × 5 days.
The mark [10] stands for this setting: Day 3, 12.5 mg/kg topical QD × 5 days.
Setting [11] is: Day 4, 12.5 mg/kg topical QD × 5 days.
Setting [12] is: Day 5, 12.5 mg/kg topical QD × 5 days.
Where [13] appears, read: Day 6, 12.5 mg/kg topical QD × 5 days.
The mark [14] stands for this setting: Day 7, 12.5 mg/kg topical QD × 5 days.

With `NCCc1c[nH]c(=S)n1[C@H]1COc2c(F)cc(F)cc2C1` [Etamicastat], the brain-blood-barrier penetration entry with norepinephrine level (compared with Nepicastat) is listed as “lower levels of brain-blood-barrier penetration”. In the series on norepinephrine level (setting [6]), the “effect on brain tissue (norepinephrine level)” value was “no effect on brain tissue” and the “norepinephrine level in peripheral sympathetic innervation tissues” value is reported as “reduce the norepinephrine level in peripheral sympathetic innervation tissues”. Moreover, in series [1] (10 mg/kg PO QD × 8 days), the “Body weight on Day 7, g” value is 19.18 g; the “Body weight on Day 7/initial body weight, %” value is given as 91.92%; the “Body weight on Day 8, g” value was 18.20 g; the “Body weight on Day 8/initial body weight, %” value is on record as 87.27%. For the same compound, in series [1] (10 mg/kg PO QD × 8 days), the “DAI score on Day 8” value came to 6.20 and the “Colon density” value is listed as 32.24 mg/cm. Further, in series [1] (30 mg/kg PO QD × 8 days), the “Body weight on Day 7, g” value was 19.48 g; the “Body weight on Day 7/initial body weight, %” value was determined as 92.19%; the “Body weight on Day 8, g” value is 18.89 g; the “Body weight on Day 8/initial body weight, %” value amounted to 89.13%. Moreover, in series [1] (30 mg/kg PO QD × 8 days), the “DAI score on Day 8” value amounted to 6.56 and the “Colon density” value came to 34.23 mg/cm. Further, in series [1] (100 mg/kg PO QD × 8 days), the “Body weight on Day 7, g” value amounted to 20.08 g; the “Body weight on Day 8, g” value was 19.19 g; the “Body weight on Day 8/initial body weight, %” value was found to be 91.63%; the “DAI score on Day 8” value is 5.00. In addition, in series [1] (Nepicastat 30, Etamicastat 100, Zamicastat 100 mg/kg PO QD × 8 days (Test groups 1#, 4#, 7#) vs solvent group), the “severity of DSS-induced colitis and disease activity” value is “ameliorated the severity of DSS-induced colitis and reduced disease activity”. The tolerance and safety entry in series [2] (10 days of treatment) was “good tolerance and safety”. For the same compound, the “systolic and diastolic blood pressure” value in series [2] (after 10 days of treatment) was “reduced systolic and diastolic blood pressure in a dose-dependent manner”.
With `O=C(O)/C=C/C(=O)O` [Fumaric acid], the “symptoms caused by DSS-induced colitis (diarrhea, hematochezia)” value in series [3] is “slightly ameliorate the symptoms of diarrhea and hematochezia”. Moreover, in series [3] (vs solvent group), the “DSS-induced body weight loss” value is “showed a trend of alleviating DSS-induced body weight loss”. For the same compound, the “disease activity score (DAI)” value in series [3] (vs solvent group, relatively obvious on Day 4 and Day 5) is recorded as “slightly improved”.
Consider `COC(=O)c1ccc2c(c1)NC(=O)/C2=C(\Nc1ccc(N(C)C(=O)CN2CCN(C)CC2)cc1)c1ccccc1` [Nintedanib], for which, in series [4], the “inflammatory cell infiltration of the lesioned skin” value was “visibly reduce” and the subdermal capillary hyperplasia entry was “visibly reduce”.
`C[C@@H]1CCN(C(=O)CC#N)C[C@@H]1N(C)c1ncnc2[nH]ccc12` [Tofacitinib]: in series [5] (12.5 mg/kg topical QD × 5 days, then BID × 2 days), the “efficacy on clinical score” value is reported as “showed efficacy after doubling the dose”. For the same compound, the erythema score in series [5] (setting [7]) was 0; in series [5] (setting [8]), 0; in series [5] (setting [9]) it was 1.4; in series [5] (setting [10]), 1.9; in series [5] (setting [11]), 2.2; in series [5] (setting [12]), 2. The erythema score in series [5] (setting [13]) worked out at 1.8; in series [5] (setting [14]), 1.7. For the same compound, the scales score worked out at 0 in series [5] (setting [7]); 0 in series [5] (setting [8]); 0 in series [5] (setting [9]); 0.4 in series [5] (setting [10]); 0.7 in series [5] (setting [11]); 1.4 in series [5] (setting [12]). The scales score in series [5] (setting [13]) is given as 1.3; in series [5] (setting [14]) it was 1.6. The thickness score in series [5] (Day 0) came out at 0; in series [5] (Day 1) it was 0.8; in series [5] (Day 2), 1.4; in series [5] (Day 3), 2.2; in series [5] (Day 4) it was 2; in series [5] (Day 5), 2.2. Further, the thickness score in series [5] (Day 6) was 2; in series [5] (Day 7), 1.9. The “total score of erythema + scales + thickness” value in series [5] (Day 0) is 0; in series [5] (Day 1), 0.8; in series [5] (Day 2), 2.8; in series [5] (Day 3) it was 4.5; in series [5] (Day 4) it was 4.9; in series [5] (Day 5), 5.6. For the same compound, the “total score of erythema + scales + thickness” value worked out at 5.1 in series [5] (Day 6) and 5.2 in series [5] (Day 7).
